Assays:
[1] = Antiproliferative activity against Balb/c mouse splenic B cells preincubated for 30 mins followed by LPS or F(ab')2 donkey anti-mouse IgM and recombinant mouse IL4 stimulation measured after 72 hrs by Alamar Blue reduction assay; assay type: functional, cell-based
[2] = target: PI3-kinase p110-delta/p85-alpha (Homo sapiens, UniProt O00329); test: Inhibition of N-terminal His6-tagged recombinant full-length human p110delta/untagged recombinant full length p85alpha expressed in baculovirus infected Sf21 cells using phosphatidylinositol as substrate in presence of gamma-32P-ATP after 5 mins by thin layer chromatographic method
[3] = target: Phosphatidylinositol 4,5-bisphosphate 3-kinase catalytic subunit gamma isoform (Homo sapiens, UniProt P48736); test: Inhibition of recombinant human C-terminal His6-tagged p110gamma expressed in insect cells using phosphatidylinositol as substrate in presence of gamma-32P-ATP after 5 mins by thin layer chromatographic method
[4] = target: PI3-kinase p110-alpha/p85-alpha (Homo sapiens, UniProt P42336); test: Inhibition of N-terminal His6-tagged recombinant full-length human p110alpha/untagged recombinant full length human p85alpha expressed in baculovirus infected Sf21 cells using phosphatidylinositol as substrate in presence of gamma-32P-ATP after 5 mins by thin layer chromatographic method
[5] = target: PI3K p110 beta/p85 alpha (Homo sapiens, UniProt P42338); test: Inhibition of N-terminal His6-tagged recombinant full-length human p110beta/untagged recombinant full length p85alpha expressed in baculovirus infected Sf21 cells using phosphatidylinositol as substrate in presence of gamma-32P-ATP after 5 mins by thin layer chromatographic method
Sequence of PI3K p110 beta/p85 alpha (P27986 whole entry): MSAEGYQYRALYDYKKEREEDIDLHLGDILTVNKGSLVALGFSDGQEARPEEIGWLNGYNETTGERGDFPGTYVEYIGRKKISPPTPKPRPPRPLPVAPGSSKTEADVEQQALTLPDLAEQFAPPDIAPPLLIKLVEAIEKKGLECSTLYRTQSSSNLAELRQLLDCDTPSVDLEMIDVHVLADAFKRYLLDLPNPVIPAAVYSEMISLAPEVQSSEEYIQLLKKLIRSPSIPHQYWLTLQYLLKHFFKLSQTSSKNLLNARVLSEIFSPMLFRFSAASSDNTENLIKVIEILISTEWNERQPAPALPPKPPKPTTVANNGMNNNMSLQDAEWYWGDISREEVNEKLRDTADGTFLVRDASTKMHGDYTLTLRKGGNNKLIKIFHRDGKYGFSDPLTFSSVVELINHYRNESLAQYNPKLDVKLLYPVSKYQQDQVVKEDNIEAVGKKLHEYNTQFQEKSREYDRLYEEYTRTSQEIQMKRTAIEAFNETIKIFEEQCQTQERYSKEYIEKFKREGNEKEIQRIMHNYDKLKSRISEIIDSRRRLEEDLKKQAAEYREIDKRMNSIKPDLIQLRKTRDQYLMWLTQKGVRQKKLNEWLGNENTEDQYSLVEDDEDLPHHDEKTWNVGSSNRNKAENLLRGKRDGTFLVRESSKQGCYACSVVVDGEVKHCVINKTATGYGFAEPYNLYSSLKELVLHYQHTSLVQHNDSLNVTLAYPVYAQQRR
Sequence of PI3K p110 beta/p85 alpha (P42338 whole entry): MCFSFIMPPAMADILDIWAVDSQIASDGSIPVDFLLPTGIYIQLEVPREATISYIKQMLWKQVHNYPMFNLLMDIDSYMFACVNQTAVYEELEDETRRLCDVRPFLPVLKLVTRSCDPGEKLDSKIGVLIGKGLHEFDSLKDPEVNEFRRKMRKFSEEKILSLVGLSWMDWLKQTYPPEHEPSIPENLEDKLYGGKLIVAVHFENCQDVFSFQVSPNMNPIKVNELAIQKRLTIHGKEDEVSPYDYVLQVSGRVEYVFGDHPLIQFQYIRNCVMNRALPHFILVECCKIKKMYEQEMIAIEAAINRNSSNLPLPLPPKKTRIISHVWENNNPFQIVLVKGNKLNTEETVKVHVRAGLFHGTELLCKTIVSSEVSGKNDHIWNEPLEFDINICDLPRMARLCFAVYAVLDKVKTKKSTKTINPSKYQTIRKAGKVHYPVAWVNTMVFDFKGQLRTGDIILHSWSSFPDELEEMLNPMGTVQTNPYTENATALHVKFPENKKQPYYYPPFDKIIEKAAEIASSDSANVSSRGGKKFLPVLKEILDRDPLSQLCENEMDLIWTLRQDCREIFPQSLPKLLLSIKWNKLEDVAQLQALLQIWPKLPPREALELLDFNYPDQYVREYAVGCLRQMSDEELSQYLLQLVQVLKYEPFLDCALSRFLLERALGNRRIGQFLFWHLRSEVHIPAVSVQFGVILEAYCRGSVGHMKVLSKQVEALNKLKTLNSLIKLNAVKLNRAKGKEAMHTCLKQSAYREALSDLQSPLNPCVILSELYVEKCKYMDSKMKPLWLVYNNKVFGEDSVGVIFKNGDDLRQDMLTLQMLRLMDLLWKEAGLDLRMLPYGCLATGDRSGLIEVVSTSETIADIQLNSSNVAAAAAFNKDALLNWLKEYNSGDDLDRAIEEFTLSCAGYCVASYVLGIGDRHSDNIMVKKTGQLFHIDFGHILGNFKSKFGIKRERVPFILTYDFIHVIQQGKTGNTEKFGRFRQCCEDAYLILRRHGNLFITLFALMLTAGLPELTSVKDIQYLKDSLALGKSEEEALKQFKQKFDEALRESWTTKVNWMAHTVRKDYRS

Sequence of PI3-kinase p110-delta/p85-alpha (P27986 whole entry, canonical isoform): as the sequence (P27986 whole entry) above
Sequence of PI3-kinase p110-delta/p85-alpha (O00329 whole entry, canonical isoform): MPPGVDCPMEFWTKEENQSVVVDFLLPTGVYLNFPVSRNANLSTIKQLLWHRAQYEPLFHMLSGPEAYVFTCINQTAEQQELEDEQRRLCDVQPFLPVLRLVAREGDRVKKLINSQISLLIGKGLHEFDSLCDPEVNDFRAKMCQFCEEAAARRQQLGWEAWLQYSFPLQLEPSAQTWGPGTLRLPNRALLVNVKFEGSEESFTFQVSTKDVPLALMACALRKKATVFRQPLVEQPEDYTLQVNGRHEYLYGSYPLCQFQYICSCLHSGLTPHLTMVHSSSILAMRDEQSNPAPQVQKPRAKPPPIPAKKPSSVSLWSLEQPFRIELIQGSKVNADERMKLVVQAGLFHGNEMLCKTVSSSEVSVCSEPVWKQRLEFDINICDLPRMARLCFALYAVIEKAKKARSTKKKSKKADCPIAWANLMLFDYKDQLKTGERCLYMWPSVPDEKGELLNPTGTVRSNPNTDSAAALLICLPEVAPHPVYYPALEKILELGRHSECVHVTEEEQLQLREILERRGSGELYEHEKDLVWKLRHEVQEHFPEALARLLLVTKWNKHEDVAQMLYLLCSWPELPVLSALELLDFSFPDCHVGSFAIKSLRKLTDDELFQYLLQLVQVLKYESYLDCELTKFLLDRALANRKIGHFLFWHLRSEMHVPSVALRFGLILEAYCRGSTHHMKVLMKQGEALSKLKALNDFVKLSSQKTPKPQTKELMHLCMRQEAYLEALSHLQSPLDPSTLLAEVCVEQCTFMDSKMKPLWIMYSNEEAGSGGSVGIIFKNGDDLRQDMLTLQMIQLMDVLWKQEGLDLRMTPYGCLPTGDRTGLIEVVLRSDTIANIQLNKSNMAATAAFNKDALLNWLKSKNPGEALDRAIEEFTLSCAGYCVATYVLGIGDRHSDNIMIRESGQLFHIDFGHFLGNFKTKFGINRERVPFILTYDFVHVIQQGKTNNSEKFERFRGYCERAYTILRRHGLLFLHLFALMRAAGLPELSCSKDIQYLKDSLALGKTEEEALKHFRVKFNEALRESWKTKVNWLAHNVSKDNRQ
Sequence of PI3-kinase p110-alpha/p85-alpha (P27986 whole entry): as the sequence (P27986 whole entry) above
Sequence of PI3-kinase p110-alpha/p85-alpha (P42336 whole entry): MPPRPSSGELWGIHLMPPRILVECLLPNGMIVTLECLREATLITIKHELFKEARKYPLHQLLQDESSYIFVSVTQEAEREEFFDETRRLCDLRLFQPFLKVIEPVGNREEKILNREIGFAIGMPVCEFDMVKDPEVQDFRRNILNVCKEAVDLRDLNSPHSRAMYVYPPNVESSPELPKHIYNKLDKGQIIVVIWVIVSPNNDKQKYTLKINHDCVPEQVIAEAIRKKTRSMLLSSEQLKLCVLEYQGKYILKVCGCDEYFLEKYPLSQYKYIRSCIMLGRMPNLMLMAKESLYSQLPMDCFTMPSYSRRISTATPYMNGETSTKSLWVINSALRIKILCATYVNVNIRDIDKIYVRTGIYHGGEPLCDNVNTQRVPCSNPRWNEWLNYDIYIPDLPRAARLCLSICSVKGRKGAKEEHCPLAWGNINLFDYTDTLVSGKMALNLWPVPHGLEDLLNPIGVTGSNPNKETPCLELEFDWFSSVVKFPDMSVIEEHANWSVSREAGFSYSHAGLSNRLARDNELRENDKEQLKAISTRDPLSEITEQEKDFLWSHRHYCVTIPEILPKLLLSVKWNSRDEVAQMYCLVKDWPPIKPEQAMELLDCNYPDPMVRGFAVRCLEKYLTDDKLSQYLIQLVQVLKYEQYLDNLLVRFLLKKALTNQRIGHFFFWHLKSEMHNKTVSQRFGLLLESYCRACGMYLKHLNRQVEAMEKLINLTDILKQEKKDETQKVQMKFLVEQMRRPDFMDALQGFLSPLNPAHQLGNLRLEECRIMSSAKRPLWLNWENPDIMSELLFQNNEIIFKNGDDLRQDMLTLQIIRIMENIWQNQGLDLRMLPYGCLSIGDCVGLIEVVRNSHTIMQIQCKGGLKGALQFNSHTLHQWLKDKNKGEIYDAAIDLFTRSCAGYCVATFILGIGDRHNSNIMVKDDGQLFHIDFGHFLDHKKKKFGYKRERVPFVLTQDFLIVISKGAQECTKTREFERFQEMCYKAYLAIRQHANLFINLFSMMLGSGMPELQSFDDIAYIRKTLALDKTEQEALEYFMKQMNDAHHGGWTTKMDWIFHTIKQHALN
Sequence of Phosphatidylinositol 4,5-bisphosphate 3-kinase catalytic subunit gamma isoform (P48736 whole entry, canonical isoform): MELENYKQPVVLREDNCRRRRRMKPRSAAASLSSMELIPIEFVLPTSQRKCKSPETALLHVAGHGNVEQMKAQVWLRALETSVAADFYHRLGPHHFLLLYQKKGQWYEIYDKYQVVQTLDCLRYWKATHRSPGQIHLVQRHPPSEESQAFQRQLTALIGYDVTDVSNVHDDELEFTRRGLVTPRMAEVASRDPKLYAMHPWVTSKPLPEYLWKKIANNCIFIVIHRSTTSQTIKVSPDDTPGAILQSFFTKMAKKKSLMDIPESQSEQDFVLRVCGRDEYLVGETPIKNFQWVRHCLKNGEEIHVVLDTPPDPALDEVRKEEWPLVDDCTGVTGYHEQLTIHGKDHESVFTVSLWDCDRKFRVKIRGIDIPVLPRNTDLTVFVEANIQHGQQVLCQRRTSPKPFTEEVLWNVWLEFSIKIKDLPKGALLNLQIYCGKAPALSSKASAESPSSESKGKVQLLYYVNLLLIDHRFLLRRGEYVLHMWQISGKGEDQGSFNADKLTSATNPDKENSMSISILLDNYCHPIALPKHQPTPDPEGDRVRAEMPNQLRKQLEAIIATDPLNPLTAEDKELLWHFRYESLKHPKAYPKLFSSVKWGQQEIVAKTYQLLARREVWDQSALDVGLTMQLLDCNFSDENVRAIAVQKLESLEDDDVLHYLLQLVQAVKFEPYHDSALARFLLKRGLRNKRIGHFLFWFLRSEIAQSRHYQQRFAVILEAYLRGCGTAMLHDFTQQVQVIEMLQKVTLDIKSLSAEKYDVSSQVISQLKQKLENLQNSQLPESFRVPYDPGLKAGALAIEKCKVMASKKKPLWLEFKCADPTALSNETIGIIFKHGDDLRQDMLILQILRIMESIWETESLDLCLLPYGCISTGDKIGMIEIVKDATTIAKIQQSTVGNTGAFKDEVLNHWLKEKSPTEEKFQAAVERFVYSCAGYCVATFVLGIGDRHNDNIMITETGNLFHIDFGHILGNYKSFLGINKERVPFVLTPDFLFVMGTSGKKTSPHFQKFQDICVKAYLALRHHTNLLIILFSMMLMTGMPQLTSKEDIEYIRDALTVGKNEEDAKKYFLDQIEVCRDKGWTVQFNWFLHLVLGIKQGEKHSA

IC50 [2]	IC50 [3]	IC50 [4]	IC50 [5]	SMILES	EC50 [1]
< 100 nM	< 100 nM	> 10000 nM	< 10000 nM	Cc1ccccc1-n1c(Cn2nc(/C=C/C(N)=O)c3c(N)ncnc32)cc2cccc(C)c2c1=O	< 100 nM
< 100 nM	< 1000 nM	> 10000 nM	< 1000 nM	Cc1cccc2cc(Cn3nc(C#C[C@@H](C)O)c4c(N)ncnc43)n(C3CC3)c(=O)c12	< 1000 nM
< 100 nM	< 1000 nM	> 10000 nM	> 10000 nM	Cc1cccc2cc(Cn3nc(-c4cccc(O)c4)c4c(N)ncnc43)n(-c3ccccc3F)c(=O)c12	< 1000 nM
< 1000 nM	< 1000 nM	> 10000 nM	> 10000 nM	Cc1ccccc1-n1c(Cn2nc(C#CC3CC3)c3c(N)ncnc32)cc2cccc(C)c2c1=O	< 1000 nM
< 100 nM	< 1000 nM	< 10000 nM	< 10000 nM	Cc1cccc2cc(Cn3nc(-c4cc(O)cc(F)c4)c4c(N)ncnc43)n(-c3ccccc3OCCN3CCOCC3)c(=O)c12	< 100 nM
< 1000 nM	< 10000 nM	> 10000 nM	> 10000 nM	Cc1ccccc1-n1c(Cn2nc(-c3cn[nH]c3)c3c(N)ncnc32)cc2ccccc2c1=O	< 100 nM
< 100 nM	< 1000 nM	> 10000 nM	> 10000 nM	Cc1cccc2cc(Cn3nc(C#C[C@@H](C)O)c4c(N)ncnc43)n(-c3ccccc3F)c(=O)c12	< 1000 nM
< 10000 nM	< 1000 nM	> 10000 nM	> 10000 nM	Cc1ccccc1-n1c(Cn2nc(-c3cccc(F)c3)c3c(N)ncnc32)cc2cccc(C)c2c1=O	< 1000 nM
< 100 nM	< 1000 nM	> 10000 nM	< 10000 nM	Cc1ccccc1-n1c(Cn2nc(-c3cc(O)cc(F)c3)c3c(N)ncnc32)cc2cccc(F)c2c1=O	< 100 nM
< 1000 nM	> 10000 nM	> 10000 nM	> 10000 nM	Cc1cccnc1-n1c(Cn2nc(C#C[C@@H](C)O)c3c(N)ncnc32)cc2cccc(C)c2c1=O	< 1000 nM
< 100 nM	< 1000 nM	> 10000 nM	< 10000 nM	CCc1ccccc1-n1c(Cn2nc(C#C[C@@H](C)O)c3c(N)ncnc32)cc2cccc(C)c2c1=O	< 100 nM
< 100 nM	< 1000 nM	> 10000 nM	> 10000 nM	Cc1ccccc1-n1c(Cn2nc(C#CCO)c3c(N)ncnc32)cc2cccc(C)c2c1=O	< 1000 nM
< 100 nM	< 10000 nM	> 10000 nM	> 10000 nM	Cc1cccc2cc(Cn3nc(C#C[C@@H](C)O)c4c(N)ncnc43)n(-c3ccccc3O)c(=O)c12	< 1000 nM
< 100 nM	< 1000 nM	> 10000 nM	< 10000 nM	Cc1cccc2cc(Cn3nc(-c4cn[nH]c4)c4c(N)ncnc43)n(-c3ccccc3F)c(=O)c12	< 1000 nM
< 100 nM	< 1000 nM	> 10000 nM	> 10000 nM	Cc1cccnc1-n1c(Cn2nc(-c3cc(O)cc(F)c3)c3c(N)ncnc32)cc2ccccc2c1=O	< 100 nM
< 1000 nM	< 1000 nM	> 10000 nM	< 10000 nM	COc1cccc(-c2nn(Cc3cc4cccc(C)c4c(=O)n3-c3ccccc3C)c3ncnc(N)c23)c1	< 1000 nM
< 100 nM	< 1000 nM	> 10000 nM	> 10000 nM	Cc1cccc2cc(Cn3nc(-c4cnn(CCO)c4)c4c(N)ncnc43)n(-c3ccccc3F)c(=O)c12	1000 to 10000 nM
< 100 nM	< 1000 nM	> 10000 nM	> 10000 nM	Cc1cccc2cc(Cn3nc(-c4cn[nH]c4)c4c(N)ncnc43)n(-c3cccc(F)c3)c(=O)c12	< 100 nM

Reference: ChEMBL document CHEMBL3879901, “Substituted isoquinolin-1(2H)-ones, and methods of use thereof” (2012)
